Measured values reported in the supplement of paper PMC10307832.

Experiments:
Experiment in all cases: relative viability (nuclei count vs DMSO), 5 days (fraction); higher = more cells survive
[1] = tested on: COR-L 105
Method in brief: (§1)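 After 5 days of treatment, lung cancer cells in 1536-well plates were fixed and stained in a single step (final 0.05% Triton X-100, 1% formaldehyde, 1 ug/ml Hoechst) and their nuclei counted on 4× images. Treatment had been applied by pin tool the day after seeding as one drug alone or as a fixed anchor-drug dose with five library-drug doses (not always all listed) in √10 steps. Relative viability is the nuclei count of treated wells divided by that of vehicle wells, and values are medians of duplicate plates.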

[2] = tested on: COR-L23
Method in brief: as §1

[3] = tested on: HARA
Method in brief: as §1

[4] = tested on: HCC-15
Method in brief: as §1

[5] = tested on: HOP-62
Method in brief: as §1

[6] = tested on: NCI-H1355
Method in brief: as §1

[7] = tested on: NCI-H1395
Method in brief: as §1

[8] = tested on: NCI-H1734
Method in brief: as §1

[9] = tested on: NCI-H1755
Method in brief: as §1

[10] = tested on: NCI-H1792
Method in brief: as §1

[11] = tested on: NCI-H1793
Method in brief: as §1

[12] = tested on: NCI-H1993
Method in brief: as §1

[13] = tested on: NCI-H2009
Method in brief: as §1

[14] = tested on: NCI-H2170
Method in brief: as §1

[15] = tested on: NCI-H2228
Method in brief: as §1

[16] = tested on: NCI-H2347
Method in brief: as §1

[17] = tested on: NCI-H358
Method in brief: as §1

[18] = tested on: NCI-H522
Method in brief: as §1

[19] = tested on: NCI-H647
Method in brief: as §1

[20] = tested on: NCI-H838
Method in brief: as §1

[21] = tested on: SK-MES-1
Method in brief: as §1

[22] = tested on: UMC-11
Method in brief: as §1

Structure (SMILES): CC(=O)O[C@@]12CO[C@@H]1C[C@H](O)[C@@]1(C)C(=O)[C@H](O)C3=C(C)[C@@H](OC(=O)[C@H](O)[C@@H](NC(=O)OC(C)(C)C)c4ccccc4)C[C@@](O)([C@@H](OC(=O)c4ccccc4)[C@H]21)C3(C)C [Docetaxel] + O=C(c1cc(Cc2n[nH]c(=O)c3ccccc23)ccc1F)N1CCN(C(=O)C2CC2)CC1 [Olaparib] (partner 8 µM)
- relative viability ([1]; first compound 0.0002 µM): 0.8
- relative viability ([1]; first compound 0.000632 µM): 0.591
- relative viability ([1]; first compound 0.002 µM): 0.461
- relative viability ([1]; first compound 0.006325 µM): 0.539
- relative viability ([1]; first compound 0.02 µM): 0.331
- relative viability ([2]; first compound 0.0002 µM): 0.307
- relative viability ([2]; first compound 0.000632 µM): 0.312
- relative viability ([2]; first compound 0.002 µM): 0.161
- relative viability ([2]; first compound 0.006325 µM): 0.134
- relative viability ([2]; first compound 0.02 µM): 0.0881
- relative viability ([3]; first compound 0.0002 µM): 0.858
- relative viability ([3]; first compound 0.000632 µM): 0.335
- relative viability ([3]; first compound 0.002 µM): 0.161
- relative viability ([3]; first compound 0.006325 µM): 0.21
- relative viability ([3]; first compound 0.02 µM): 0.0824
- relative viability ([4]; first compound 0.0002 µM): 0.72
- relative viability ([4]; first compound 0.000632 µM): 0.382
- relative viability ([4]; first compound 0.002 µM): 0.281
- relative viability ([4]; first compound 0.02 µM): 0.175
- relative viability ([5]; first compound 0.0002 µM): 0.336
- relative viability ([5]; first compound 0.000632 µM): 0.317
- relative viability ([5]; first compound 0.002 µM): 0.129
- relative viability ([5]; first compound 0.02 µM): 0.12
- relative viability ([6]; first compound 0.0002 µM): 0.732
- relative viability ([6]; first compound 0.000632 µM): 0.533
- relative viability ([6]; first compound 0.002 µM): 0.353
- relative viability ([6]; first compound 0.006325 µM): 0.203
- relative viability ([6]; first compound 0.02 µM): 0.164
- relative viability ([7]; first compound 0.0002 µM): 0.502
- relative viability ([7]; first compound 0.000632 µM): 0.469
- relative viability ([7]; first compound 0.002 µM): 0.481
- relative viability ([7]; first compound 0.006325 µM): 0.341
- relative viability ([7]; first compound 0.02 µM): 0.339
- relative viability ([8]; first compound 0.0002 µM): 0.498
- relative viability ([8]; first compound 0.000632 µM): 0.506
- relative viability ([8]; first compound 0.002 µM): 0.292
- relative viability ([8]; first compound 0.006325 µM): 0.324
- relative viability ([8]; first compound 0.02 µM): 0.196
- relative viability ([9]; first compound 0.0002 µM): 0.87
- relative viability ([9]; first compound 0.000632 µM): 0.729
- relative viability ([9]; first compound 0.002 µM): 0.578
- relative viability ([9]; first compound 0.006325 µM): 0.417
- relative viability ([9]; first compound 0.02 µM): 0.377
- relative viability ([10]; first compound 0.0002 µM): 0.281
- relative viability ([10]; first compound 0.000632 µM): 0.306
- relative viability ([10]; first compound 0.002 µM): 0.0724
- relative viability ([10]; first compound 0.006325 µM): 0.0761
- relative viability ([10]; first compound 0.02 µM): 0.0428
- relative viability ([11]; first compound 0.0002 µM): 0.8
- relative viability ([11]; first compound 0.000632 µM): 0.517
- relative viability ([11]; first compound 0.002 µM): 0.287
- relative viability ([11]; first compound 0.006325 µM): 0.293
- relative viability ([12]; first compound 0.0002 µM): 0.929
- relative viability ([12]; first compound 0.000632 µM): 0.918
- relative viability ([12]; first compound 0.002 µM): 0.793
- relative viability ([12]; first compound 0.006325 µM): 0.531
- relative viability ([12]; first compound 0.02 µM): 0.409
- relative viability ([13]; first compound 0.0002 µM): 0.606
- relative viability ([13]; first compound 0.000632 µM): 0.79
- relative viability ([13]; first compound 0.002 µM): 0.562
- relative viability ([13]; first compound 0.006325 µM): 0.397
- relative viability ([13]; first compound 0.02 µM): 0.149
- relative viability ([14]; first compound 0.0002 µM): 0.611
- relative viability ([14]; first compound 0.000632 µM): 0.475
- relative viability ([14]; first compound 0.002 µM): 0.342
- relative viability ([14]; first compound 0.006325 µM): 0.136
- relative viability ([14]; first compound 0.02 µM): 0.126
- relative viability ([15]; first compound 0.0002 µM): 0.446
- relative viability ([15]; first compound 0.000632 µM): 0.275
- relative viability ([15]; first compound 0.002 µM): 0.153
- relative viability ([15]; first compound 0.006325 µM): 0.13
- relative viability ([15]; first compound 0.02 µM): 0.0992
- relative viability ([16]; first compound 0.0002 µM): 0.613
- relative viability ([16]; first compound 0.000632 µM): 0.566
- relative viability ([16]; first compound 0.002 µM): 0.557
- relative viability ([16]; first compound 0.006325 µM): 0.505
- relative viability ([16]; first compound 0.02 µM): 0.388
- relative viability ([17]; first compound 0.0002 µM): 0.551
- relative viability ([17]; first compound 0.000632 µM): 0.251
- relative viability ([17]; first compound 0.002 µM): 0.136
- relative viability ([17]; first compound 0.006325 µM): 0.147
- relative viability ([17]; first compound 0.02 µM): 0.095
- relative viability ([18]; first compound 0.0002 µM): 0.653
- relative viability ([18]; first compound 0.000632 µM): 0.459
- relative viability ([18]; first compound 0.002 µM): 0.532
- relative viability ([18]; first compound 0.006325 µM): 0.499
- relative viability ([18]; first compound 0.02 µM): 0.377
- relative viability ([19]; first compound 0.0002 µM): 0.449
- relative viability ([19]; first compound 0.000632 µM): 0.132
- relative viability ([19]; first compound 0.002 µM): 0.0799
- relative viability ([19]; first compound 0.006325 µM): 0.0764
- relative viability ([19]; first compound 0.02 µM): 0.0432
- relative viability ([20]; first compound 0.0002 µM): 0.716
- relative viability ([20]; first compound 0.000632 µM): 0.368
- relative viability ([20]; first compound 0.002 µM): 0.268
- relative viability ([20]; first compound 0.006325 µM): 0.137
- relative viability ([20]; first compound 0.02 µM): 0.106
- relative viability ([21]; first compound 0.0002 µM): 0.719
- relative viability ([21]; first compound 0.000632 µM): 0.405
- relative viability ([21]; first compound 0.002 µM): 0.354
- relative viability ([21]; first compound 0.02 µM): 0.145
- relative viability ([22]; first compound 0.0002 µM): 0.371
- relative viability ([22]; first compound 0.000632 µM): 0.352
- relative viability ([22]; first compound 0.002 µM): 0.221
- relative viability ([22]; first compound 0.006325 µM): 0.289
- relative viability ([22]; first compound 0.02 µM): 0.229
